{
  "source": "patent US12382957B2",
  "about": "“Lactam compound or salt thereof, complex, and fertilizer and plant growth regulator containing said compound or salt and complex” (AICHI STEEL CORPORATION, priority 2020, dated 2025)",
  "key": {"[1]": {"system": "paddy rice variety \"Nipponbare\"", "experiment": "Alkaline soil cultivation test", "assay_type": "in vivo", "details": "fossil shellfish soil pH9; 30 μmol administered only once; SPAD 7 days after the administration; FIG. 4", "procedure": "The paddy rice variety “Nipponbare” was seeded in tap water. When roots and buds emerged, seedlings were soaked in a hydroponic solution (formulation in the Horticultural Experiment Station). When the plant height reached about 7 cm, the seedlings were transplanted into fossil shellfish soil having a pH9. Aqueous solutions containing 30 μmol of each of Fe-PDMA, only PDMA, a complex composed of the lactam compound (L2) and iron sulfate (III) (hereinafter, referred to as “Fe(III)-lactam compound (L2)”), a complex composed of the lactam compound (L2) and iron sulfate (II) (hereinafter, referred to as “Fe(II)-lactam compound (L2)”), lactam compound (L2), disodium ethylenediamine tetraacetate, Fe-EDTA, Fe-EDDHA, iron sulfate (III) or iron sulfate (II). were administered only once to each of the soil to measure SPAD values 7 days after the administration. According to FIG. 4, SPAD values were 33.8 and 30.9, respectively when either the Fe-lactam compound (L2) of divalent and trivalent iron was used."}, "[2]": {"experiment": "Stability of aqueous solution (1H-NMR in waters with different pH)", "assay_type": "physicochemical", "details": "aqueous solutions of pH 1 (hydrochloric acid), pH 7 (water), pH 9 (sodium hydrogen carbonate), FIG. 1", "procedure": "In order to investigate the stability of the lactam compound (L2) in water having different pH, an aqueous solution having a pH of 1 using hydrochloric acid, an aqueous solution having a pH of 7 in which the lactam compound (L2) was dissolved in water, and an aqueous solution having a pH of 9 using sodium hydrogen carbonate were subjected to ^1H-NMR measurement."}},
  "data": [
    {"smiles": "O=C(O)[C@@H]1CCCN1CC[C@@H](C(=O)O)N1CC[C@H](O)C1=O", "note": "[lactam compound (L2)]", "values": [
      {"measurement": "growth effect in alkaline soil", "setting": "[1]", "value": "the effect can be obtained"},
      {"measurement": "stability of the lactam ring in water", "setting": "[2]", "value": "the lactam ring structure is maintained"}
    ]}
  ]
}
